Assay results from the supplement of paper PMC10307832.

Assays:
Test in all cases: relative viability (nuclei count vs DMSO), 5 days (fraction); higher = more cells survive
[1] = tested on: COR-L 105
In short: (§1)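 Lung cancer cell lines in 1536-well plates got either a single drug or a fixed anchor-drug dose together with five library-drug doses (not always all listed) in √10 steps, by pin tool, on the day after seeding. Nuclei were counted after 5 days, and relative viability is the treated-to-vehicle ratio of nuclei counts. Values are medians of duplicate plates.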

[2] = tested on: NCI-H1915
In short: as §1

[3] = tested on: NCI-H650
In short: as §1

[4] = tested on: NCI-H2347
In short: as §1

[5] = tested on: NCI-H522
In short: as §1

[6] = tested on: ChaGo-K-1
In short: as §1

[7] = tested on: LCLC-97TM1
In short: as §1

[8] = tested on: NCI-H647
In short: as §1

[9] = tested on: EPLC-272H
In short: as §1

[10] = tested on: NCI-H520
In short: as §1

[11] = tested on: NCI-H322M
In short: as §1

[12] = tested on: NCI-H661
In short: as §1

[13] = tested on: NCI-H2087
In short: as §1

[14] = tested on: 201T
In short: as §1

[15] = tested on: H3255
In short: as §1

[16] = tested on: RERF-LC-KJ
In short: as §1

[17] = tested on: PC-14
In short: as §1

[18] = tested on: NCI-H2126
In short: as §1

[19] = tested on: NCI-H23
In short: as §1

[20] = tested on: NCI-H1666
In short: as §1

[21] = tested on: HCC-827
In short: as §1

[22] = tested on: LC-2-ad
In short: as §1

[23] = tested on: HCC-78
In short: as §1

[24] = tested on: NCI-H2405
In short: as §1

COc1cc(N2CCC(C(N)=O)CC2)ccc1Nc1nc(N)c(Cl)c(Nc2ccccc2S(=O)(=O)C(C)C)n1 [HG-5-88-01] + CC(=O)c1c(C)c2cnc(Nc3ccc(N4CCNCC4)cn3)nc2n(C2CCCC2)c1=O [Palbociclib] (partner 0.5 µM) showed a relative viability ([1]; first compound 0.04 µM) of 0.398, a relative viability ([1]; first compound 0.1265 µM) of 0.419 and a relative viability ([1]; first compound 0.4 µM) of 0.459. The relative viability ([1]; first compound 1.265 µM) was 0.403, the relative viability ([1]; first compound 4 µM) was 0.394 and the relative viability ([2]; first compound 0.04 µM) was 0.592. The relative viability ([2]; first compound 0.1265 µM) was 0.559, the relative viability ([2]; first compound 0.4 µM) was 0.588 and the relative viability ([2]; first compound 1.265 µM) was 0.565. The relative viability ([2]; first compound 4 µM) was 0.502, the relative viability ([3]; first compound 0.04 µM) was 0.398 and the relative viability ([3]; first compound 0.1265 µM) was 0.341. The relative viability ([3]; first compound 0.4 µM) was 0.338, the relative viability ([3]; first compound 1.265 µM) was 0.303 and the relative viability ([3]; first compound 4 µM) was 0.296. The relative viability ([4]; first compound 0.04 µM) was 0.439, the relative viability ([4]; first compound 0.1265 µM) was 0.417 and the relative viability ([4]; first compound 0.4 µM) was 0.467. For the same compound, the relative viability ([4]; first compound 1.265 µM) was 0.431, the relative viability ([4]; first compound 4 µM) was 0.425 and the relative viability ([5]; first compound 0.04 µM) was 1.06. For the same compound, the relative viability ([5]; first compound 0.1265 µM) was 1.03, the relative viability ([5]; first compound 0.4 µM) was 1.01 and the relative viability ([5]; first compound 1.265 µM) was 0.829. The relative viability ([5]; first compound 4 µM) was 0.851, the relative viability ([6]; first compound 0.04 µM) was 0.931 and the relative viability ([6]; first compound 0.1265 µM) was 0.813. The relative viability ([6]; first compound 0.4 µM) was 0.881, the relative viability ([6]; first compound 1.265 µM) was 0.959 and the relative viability ([6]; first compound 4 µM) was 0.881. It also gave a relative viability ([7]; first compound 0.04 µM) of 0.214, a relative viability ([7]; first compound 0.1265 µM) of 0.198 and a relative viability ([7]; first compound 0.4 µM) of 0.197. For the same compound, the relative viability ([7]; first compound 1.265 µM) was 0.194, the relative viability ([7]; first compound 4 µM) was 0.118 and the relative viability ([8]; first compound 0.04 µM) was 0.388. The relative viability ([8]; first compound 0.1265 µM) was 0.423, the relative viability ([8]; first compound 1.265 µM) was 0.444 and the relative viability ([8]; first compound 4 µM) was 0.494. The relative viability ([9]; first compound 0.04 µM) was 0.342, the relative viability ([9]; first compound 0.1265 µM) was 0.342 and the relative viability ([9]; first compound 0.4 µM) was 0.335. The relative viability ([9]; first compound 1.265 µM) was 0.273, the relative viability ([9]; first compound 4 µM) was 0.0966 and the relative viability ([10]; first compound 0.04 µM) was 0.206. It also gave a relative viability ([10]; first compound 0.1265 µM) of 0.216, a relative viability ([10]; first compound 0.4 µM) of 0.186 and a relative viability ([10]; first compound 1.265 µM) of 0.247. It also gave a relative viability ([10]; first compound 4 µM) of 0.232, a relative viability ([11]; first compound 0.04 µM) of 0.532 and a relative viability ([11]; first compound 0.1265 µM) of 0.492. For the same compound, the relative viability ([11]; first compound 0.4 µM) was 0.477, the relative viability ([11]; first compound 1.265 µM) was 0.337 and the relative viability ([11]; first compound 4 µM) was 0.443. It also gave a relative viability ([12]; first compound 0.04 µM) of 0.384, a relative viability ([12]; first compound 0.1265 µM) of 0.417 and a relative viability ([12]; first compound 0.4 µM) of 0.416. It also gave a relative viability ([12]; first compound 1.265 µM) of 0.359, a relative viability ([12]; first compound 4 µM) of 0.426 and a relative viability ([13]; first compound 0.04 µM) of 0.242. It also gave a relative viability ([13]; first compound 0.1265 µM) of 0.246, a relative viability ([13]; first compound 0.4 µM) of 0.219 and a relative viability ([13]; first compound 1.265 µM) of 0.207. It also gave a relative viability ([13]; first compound 4 µM) of 0.244, a relative viability ([14]; first compound 0.04 µM) of 0.368 and a relative viability ([14]; first compound 0.1265 µM) of 0.343. The relative viability ([14]; first compound 1.265 µM) was 0.347, the relative viability ([14]; first compound 4 µM) was 0.36 and the relative viability ([15]; first compound 0.04 µM) was 0.291. It also gave a relative viability ([15]; first compound 0.1265 µM) of 0.312, a relative viability ([15]; first compound 0.4 µM) of 0.309 and a relative viability ([15]; first compound 4 µM) of 0.277. It also gave a relative viability ([16]; first compound 0.04 µM) of 1.07, a relative viability ([16]; first compound 0.1265 µM) of 1.14 and a relative viability ([16]; first compound 0.4 µM) of 1.08. For the same compound, the relative viability ([16]; first compound 1.265 µM) was 0.908, the relative viability ([16]; first compound 4 µM) was 0.656 and the relative viability ([17]; first compound 0.04 µM) was 0.545. The relative viability ([17]; first compound 0.1265 µM) was 0.611, the relative viability ([17]; first compound 0.4 µM) was 0.464 and the relative viability ([17]; first compound 1.265 µM) was 0.221. For the same compound, the relative viability ([17]; first compound 4 µM) was 0.0845, the relative viability ([18]; first compound 0.04 µM) was 0.363 and the relative viability ([18]; first compound 0.1265 µM) was 0.352. For the same compound, the relative viability ([18]; first compound 0.4 µM) was 0.378, the relative viability ([18]; first compound 1.265 µM) was 0.332 and the relative viability ([18]; first compound 4 µM) was 0.372. It also gave a relative viability ([19]; first compound 0.04 µM) of 0.507, a relative viability ([19]; first compound 0.1265 µM) of 0.549 and a relative viability ([19]; first compound 0.4 µM) of 0.545. The relative viability ([19]; first compound 1.265 µM) was 0.378, the relative viability ([19]; first compound 4 µM) was 0.263 and the relative viability ([20]; first compound 0.04 µM) was 0.636. The relative viability ([20]; first compound 0.1265 µM) was 0.663, the relative viability ([20]; first compound 0.4 µM) was 0.623 and the relative viability ([20]; first compound 1.265 µM) was 0.661. It also gave a relative viability ([20]; first compound 4 µM) of 0.623, a relative viability ([21]; first compound 0.04 µM) of 0.583 and a relative viability ([21]; first compound 0.1265 µM) of 0.459. The relative viability ([21]; first compound 0.4 µM) was 0.425, the relative viability ([21]; first compound 1.265 µM) was 0.197 and the relative viability ([21]; first compound 4 µM) was 0.33. For the same compound, the relative viability ([22]; first compound 0.04 µM) was 0.471, the relative viability ([22]; first compound 0.1265 µM) was 0.431 and the relative viability ([22]; first compound 0.4 µM) was 0.449. For the same compound, the relative viability ([22]; first compound 1.265 µM) was 0.474, the relative viability ([22]; first compound 4 µM) was 0.516 and the relative viability ([23]; first compound 0.04 µM) was 0.465. It also gave a relative viability ([23]; first compound 0.1265 µM) of 0.424, a relative viability ([23]; first compound 0.4 µM) of 0.497 and a relative viability ([23]; first compound 1.265 µM) of 0.421. The relative viability ([23]; first compound 4 µM) was 0.44, the relative viability ([24]; first compound 0.04 µM) was 0.515 and the relative viability ([24]; first compound 0.1265 µM) was 0.523. It also gave a relative viability ([24]; first compound 0.4 µM) of 0.528, a relative viability ([24]; first compound 1.265 µM) of 0.348 and a relative viability ([24]; first compound 4 µM) of 0.462.
